Measurements taken from US20250388605A1, “HETEROBIFUNCTIONAL COMPOUNDS AND METHODS OF TREATING DISEASE” (Halda Therapeutics OpCo, Inc., priority 2022, published 2025).

Test system: T47D cells
Experiment: Cellular Growth Inhibition Assay for T47D Cells (CellTiter-Glo)
Format: cell-based, human
Settings: 72 hours
How it was run: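 GI50 values derive from four-parameter regression of CellTiter-Glo 2.0 luminescence, using zero luminescence as baseline. Human breast cancer T47D cells (3000/well; DMEM, 10% FBS, 0.2 units/mL insulin) were exposed for 72 h to compound dilutions at 0.5% DMSO, with dosing starting 24 h after seeding.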

Structure (SMILES)	GI50
CCS(=O)(=O)Nc1ccc(Oc2cccc(OC3CC(C4CCN(c5ncc(C(=O)N[C@H]6C(C)(C)[C@H](Oc7ccc(C#N)c(Cl)c7)C6(C)C)cn5)CC4)C3)c2)c(-c2cn(C)c(=O)c3[nH]ccc23)c1 (stereo partly shown) [Compound I-104]	< 500 nM
CCS(=O)(=O)Nc1ccc(Oc2cccc(N3CC(CC4CN(c5ncc(C(=O)N[C@H]6C(C)(C)[C@H](Oc7ccc(C#N)c(Cl)c7)C6(C)C)cn5)C4)C3)c2)c(-c2cn(C)c(=O)c3[nH]ccc23)c1 [Compound I-158]	< 500 nM
Cn1cc(-c2cc(C(C)(C)O)ccc2Oc2ccc(N3CC4(C3)CN(c3ncc(C(=O)N[C@H]5C(C)(C)[C@H](Oc6ccc(C#N)c(Cl)c6)C5(C)C)cn3)CCO4)cc2)c2cc[nH]c2c1=O [Compound I-212]	500 to 1500 nM
CCS(=O)(=O)c1ccc(Oc2cccc(OCCN3CCN(c4ncc5c(n4)CN([C@H]4C(C)(C)[C@H](Oc6ccc(C#N)c(Cl)c6)C4(C)C)C5=O)CC3)c2F)c(-c2cn(C)c(=O)c3[nH]ccc23)c1 [Compound I-217]	< 500 nM
CN(C1CN(c2ccc(Oc3ccc(C(C)(C)O)cc3-c3cn(C)c(=O)c4[nH]ccc34)cc2)C1)C1CN(c2ncc(C(=O)N[C@H]3C(C)(C)[C@H](Oc4ccc(C#N)c(Cl)c4)C3(C)C)cn2)C1 [Compound I-238]	< 500 nM
CN(CC1CCN(c2ncc(C(=O)N[C@H]3C(C)(C)[C@H](Oc4ccc(C#N)c(Cl)c4)C3(C)C)cn2)CC1)C1(c2ccc(Oc3ccc(C(C)(C)O)cc3-c3cn(C)c(=O)c4[nH]ccc34)cc2)COC1 [Compound I-255]	< 500 nM

Same assay, conditions: Homo sapiens, 72 hours

Structure (SMILES)	GI50
CCS(=O)(=O)Nc1ccc(Oc2cccc(N3CC4(CN(CC5CCN(c6ncc(C(=O)N[C@H]7C(C)(C)[C@H](Oc8ccc(C#N)c(Cl)c8)C7(C)C)cn6)CC5)C4)C3)c2)c(-c2cn(C)c(=O)c3[nH]ccc23)c1 [Compound I-35, N-((1r, 3r)-3-(3-chloro-4-cyanophenoxy)-2,2,4,4-tetramethylcyclobutyl)-2-(4-((6-(3-(4-(ethylsulfonamido)-2-(6-methyl-7-oxo-6,7-dihydro-1H-pyrrolo[2,3-c]pyridin-4-yl)phenoxy)phenyl)-2,6-diazaspiro[3.3]heptan-2-yl)methyl)piperidin-1-yl)pyrimidine-5-carboxamide]	< 500 nM
CCS(=O)(=O)Nc1ccc(Oc2cccc(OC3CCC4(CC3)CCN(c3ncc(C(=O)N[C@H]5C(C)(C)[C@H](Oc6ccc(C#N)c(Cl)c6)C5(C)C)cn3)CC4)c2)c(-c2cn(C)c(=O)c3[nH]ccc23)c1 [Compound I-45]	< 500 nM
CCS(=O)(=O)Nc1ccc(Oc2cccc(OCCOC3CCN(c4ccc(C(=O)N[C@H]5C(C)(C)[C@H](Oc6ccc(C#N)c(Cl)c6)C5(C)C)cn4)CC3)c2)c(-c2cn(C)c(=O)c3[nH]ccc23)c1 [Compound I-70, N-((1r, 3r)-3-(3-chloro-4-cyanophenoxy)-2,2,4,4-tetramethylcyclobutyl)-6-(4-(2-(3-(4-(ethylsulfonamido)-2-(6-methyl-7-oxo-6,7-dihydro-1H-pyrrolo[2,3-c]pyridin-4-yl)phenoxy)phenoxy)ethoxy)piperidin-1-yl)nicotinamide]	< 500 nM
CCS(=O)(=O)Nc1ccc(Oc2cccc(OCCOC3CCN(c4cnc(C(=O)N[C@H]5C(C)(C)[C@H](Oc6ccc(C#N)c(Cl)c6)C5(C)C)cn4)CC3)c2)c(-c2cn(C)c(=O)c3[nH]ccc23)c1 [Compound I-71, N-((1r, 3r)-3-(3-chloro-4-cyanophenoxy)-2,2,4,4-tetramethylcyclobutyl)-5-(4-(2-(3-(4-(ethylsulfonamido)-2-(6-methyl-7-oxo-6,7-dihydro-1H-pyrrolo[2,3-c]pyridin-4-yl)phenoxy)phenoxy)ethoxy)piperidin-1-yl)pyrazine-2-carboxamide]	< 500 nM
Cn1cc(-c2cc(N)ccc2Oc2cccc(N3CC(N4CCN(c5ncc(C(=O)N[C@H]6C(C)(C)[C@H](Oc7ccc(C#N)c(Cl)c7)C6(C)C)cn5)CC4)C3)c2F)c2cc[nH]c2c1=O [Compound I-93]	500 to 1500 nM
Cn1cc(-c2cc(N)ccc2Oc2cccc(OCCN3CCN(c4ncc(C(=O)N[C@H]5C(C)(C)[C@H](Oc6ccc(C#N)c(Cl)c6)C5(C)C)cn4)CC3)c2F)c2cc[nH]c2c1=O [Compound I-100]	1500 to 3000 nM
Cn1cc(-c2cc(N)ccc2Oc2cccc(OCCC3CCN(c4ncc(C(=O)N[C@H]5C(C)(C)[C@H](Oc6ccc(C#N)c(Cl)c6)C5(C)C)cn4)CC3)c2)c2cc[nH]c2c1=O [Compound I-101]	500 to 1500 nM
CCS(=O)(=O)N(C)c1ccc(Oc2cccc(N3CCN(C4CN(c5ncc(C(=O)N[C@H]6C(C)(C)[C@H](Oc7ccc(C#N)c(Cl)c7)C6(C)C)cn5)C4)CC3)c2)c(-c2cn(C)c(=O)c3[nH]ccc23)c1 [Compound I-118]	< 500 nM
CCS(=O)(=O)Nc1ccc(Oc2cccc(CCN3CC4CN(c5ncc(C(=O)N[C@H]6C(C)(C)[C@H](Oc7ccc(C#N)c(Cl)c7)C6(C)C)cn5)CC4C3)c2)c(-c2cn(C)c(=O)c3[nH]ccc23)c1 (stereo partly shown) [Compound I-119]	< 500 nM
CCS(=O)(=O)Nc1ccc(Oc2cccc(N3CC(N(C)C4CN(c5ncc(C(=O)N[C@H]6C(C)(C)[C@H](Oc7ccc(C#N)c(Cl)c7)C6(C)C)cn5)C4)C3)c2)c(-c2cn(C)c(=O)c3[nH]ccc23)c1 [Compound I-120]	< 500 nM
Cn1cc(-c2cc(C(C)(C)O)ccc2Oc2ccc(CC3CCN(c4ncc(C(=O)N[C@H]5C(C)(C)[C@H](Oc6ccc(C#N)c(Cl)c6)C5(C)C)cn4)CC3)cc2)c2cc[nH]c2c1=O [Compound I-201]	< 500 nM
Cn1cc(-c2cc(C(C)(C)O)ccc2Oc2ccc(OCC3CCN(c4ncc(C(=O)N[C@H]5C(C)(C)[C@H](Oc6ccc(C#N)c(Cl)c6)C5(C)C)cn4)CC3)cc2)c2cc[nH]c2c1=O [Compound I-202]	500 to 1500 nM
Cn1cc(-c2cc(C(C)(C)O)ccc2Oc2ccc(OCCN3CCN(c4ncc(C(=O)N[C@H]5C(C)(C)[C@H](Oc6ccc(C#N)c(Cl)c6)C5(C)C)cn4)CC3)cc2)c2cc[nH]c2c1=O [Compound I-204]	< 500 nM
CN(C1CCN(c2ncc(C(=O)N[C@H]3C(C)(C)[C@H](Oc4ccc(C#N)c(Cl)c4)C3(C)C)cn2)CC1)C1CN(c2ccc(Oc3ccc(C(C)(C)O)cc3-c3cn(C)c(=O)c4[nH]ccc34)cc2)C1 [Compound I-208]	< 500 nM
Cn1cc(-c2cc(C(C)(C)O)ccc2Oc2cccc(N3CC4(CN(c5ncc(C(=O)N[C@H]6C(C)(C)[C@H](Oc7ccc(C#N)c(Cl)c7)C6(C)C)cn5)CCO4)C3)c2F)c2cc[nH]c2c1=O [Compound I-216]	< 500 nM
Cn1cc(-c2cc(C(C)(C)O)ccc2Oc2ccc(N3CC(OC4CCN(c5ncc(C(=O)N[C@H]6C(C)(C)[C@H](Oc7ccc(C#N)c(Cl)c7)C6(C)C)cn5)CC4)C3)cc2)c2cc[nH]c2c1=O [Compound I-219]	< 500 nM
CCS(=O)(=O)c1ccc(Oc2ccc(OCC3CCN(c4ncc5c(n4)CN([C@H]4C(C)(C)[C@H](Cc6ccc(C#N)c(Cl)c6)C4(C)C)C5=O)CC3)cc2)c(-c2cn(C)c(=O)c3[nH]ccc23)c1 [Compound I-220]	< 500 nM
CC(C)N(C1CCN(c2ncc(C(=O)N[C@H]3C(C)(C)[C@H](Oc4ccc(C#N)c(Cl)c4)C3(C)C)cn2)CC1)C1CN(c2cccc(Oc3ccc(C(C)(C)O)cc3-c3cn(C)c(=O)c4[nH]ccc34)c2F)C1 [Compound I-221]	500 to 1500 nM
Cn1cc(-c2cc(C(C)(C)O)ccc2Oc2ccc(N3CC(CC4CCN(c5ncc(C(=O)N[C@H]6C(C)(C)[C@H](Oc7ccc(C#N)c(Cl)c7)C6(C)C)cn5)CC4)C3)cc2)c2cc[nH]c2c1=O [Compound I-232]	< 500 nM
